What was measured:
Assay type in all cases: cell-based
[1] = target: ATP-dependent translocase ABCB1 (Homo sapiens, UniProt P08183, Q1193T); assay: Negative allosteric modulator activity at human P-gp Q1193T mutant expressed in HEK293FT cells assessed as reversal of P-gp mediated PTX resistance by measuring sensitivity fold change incubated for 5 days by MTS assay; details: 120 h, time 5 day
[2] = target: ATP-dependent translocase ABCB1 (Homo sapiens, UniProt P08183, Q1193E); assay: Negative allosteric modulator activity at human P-gp Q1193E mutant expressed in HEK293FT cells assessed as increase in intracellular doxorubicin accumulation using doxorubicin as substrate at 1 uM incubated for 150 mins by microplate reader assay (reference value: 62.9 +/- 1.4 %); details: 2.5 h
[3] = target: ATP-dependent translocase ABCB1 (Homo sapiens, UniProt P08183, Q1193K); assay: Negative allosteric modulator activity at human P-gp Q1193K mutant expressed in HEK293FT cells assessed as reversal of P-gp mediated PTX resistance by measuring sensitivity fold change incubated for 5 days by MTS assay; details: 120 h, time 5 day
[4] = target: ATP-dependent translocase ABCB1 (Homo sapiens, UniProt P08183, T1226Y); assay: Negative allosteric modulator activity at human P-gp T1226Y mutant expressed in HEK293FT cells assessed as increase in intracellular doxorubicin accumulation using doxorubicin as substrate at 1 uM incubated for 150 mins by microplate reader assay (reference value: 67.4 +/- 2 %); details: 2.5 h
[5] = target: ATP-dependent translocase ABCB1 (Homo sapiens, UniProt P08183, G1114L); assay: Negative allosteric modulator activity at human P-gp G1114L mutant expressed in HEK293FT cells assessed as increase in intracellular doxorubicin accumulation using doxorubicin as substrate at 1 uM incubated for 150 mins by microplate reader assay (reference value: 97.9 +/- 4.2 %); details: 2.5 h
Sequence of ATP-dependent translocase ABCB1 (Homo sapiens, UniProt P08183, G1114L) (P08183 whole entry G1114L): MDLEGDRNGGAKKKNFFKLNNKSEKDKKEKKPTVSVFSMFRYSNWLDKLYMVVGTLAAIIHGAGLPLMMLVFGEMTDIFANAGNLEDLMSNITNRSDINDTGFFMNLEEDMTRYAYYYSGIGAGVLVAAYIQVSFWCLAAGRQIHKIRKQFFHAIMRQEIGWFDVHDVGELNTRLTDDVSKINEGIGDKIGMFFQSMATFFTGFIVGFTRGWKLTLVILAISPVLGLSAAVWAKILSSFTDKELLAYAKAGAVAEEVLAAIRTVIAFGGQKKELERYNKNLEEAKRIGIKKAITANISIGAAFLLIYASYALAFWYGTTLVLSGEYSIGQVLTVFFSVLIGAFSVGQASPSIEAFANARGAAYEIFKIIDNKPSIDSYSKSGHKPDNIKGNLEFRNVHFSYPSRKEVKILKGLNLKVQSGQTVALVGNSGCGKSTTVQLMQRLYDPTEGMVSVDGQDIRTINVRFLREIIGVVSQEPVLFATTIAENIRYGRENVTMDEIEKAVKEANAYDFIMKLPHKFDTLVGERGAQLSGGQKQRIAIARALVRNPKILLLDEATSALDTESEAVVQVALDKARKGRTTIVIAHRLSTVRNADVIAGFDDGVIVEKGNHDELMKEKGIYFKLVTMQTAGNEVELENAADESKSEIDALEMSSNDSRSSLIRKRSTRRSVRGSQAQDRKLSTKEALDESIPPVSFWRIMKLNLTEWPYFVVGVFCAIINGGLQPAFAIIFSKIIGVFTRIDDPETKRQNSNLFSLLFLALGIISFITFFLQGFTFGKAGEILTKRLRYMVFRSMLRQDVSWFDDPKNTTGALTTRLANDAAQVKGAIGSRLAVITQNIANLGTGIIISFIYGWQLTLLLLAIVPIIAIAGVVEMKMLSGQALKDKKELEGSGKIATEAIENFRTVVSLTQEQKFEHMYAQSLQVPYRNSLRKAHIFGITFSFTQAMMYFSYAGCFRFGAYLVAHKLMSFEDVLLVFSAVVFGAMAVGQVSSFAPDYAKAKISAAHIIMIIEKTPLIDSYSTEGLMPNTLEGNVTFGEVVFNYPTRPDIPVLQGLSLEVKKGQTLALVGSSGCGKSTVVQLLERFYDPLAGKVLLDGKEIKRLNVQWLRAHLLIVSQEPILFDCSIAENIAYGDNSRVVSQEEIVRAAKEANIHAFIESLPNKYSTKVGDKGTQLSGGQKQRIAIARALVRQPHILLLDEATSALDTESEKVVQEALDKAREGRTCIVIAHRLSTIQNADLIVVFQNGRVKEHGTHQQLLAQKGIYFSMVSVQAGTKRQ

Sequence of ATP-dependent translocase ABCB1 (Homo sapiens, UniProt P08183, Q1193E) (P08183 whole entry Q1193E): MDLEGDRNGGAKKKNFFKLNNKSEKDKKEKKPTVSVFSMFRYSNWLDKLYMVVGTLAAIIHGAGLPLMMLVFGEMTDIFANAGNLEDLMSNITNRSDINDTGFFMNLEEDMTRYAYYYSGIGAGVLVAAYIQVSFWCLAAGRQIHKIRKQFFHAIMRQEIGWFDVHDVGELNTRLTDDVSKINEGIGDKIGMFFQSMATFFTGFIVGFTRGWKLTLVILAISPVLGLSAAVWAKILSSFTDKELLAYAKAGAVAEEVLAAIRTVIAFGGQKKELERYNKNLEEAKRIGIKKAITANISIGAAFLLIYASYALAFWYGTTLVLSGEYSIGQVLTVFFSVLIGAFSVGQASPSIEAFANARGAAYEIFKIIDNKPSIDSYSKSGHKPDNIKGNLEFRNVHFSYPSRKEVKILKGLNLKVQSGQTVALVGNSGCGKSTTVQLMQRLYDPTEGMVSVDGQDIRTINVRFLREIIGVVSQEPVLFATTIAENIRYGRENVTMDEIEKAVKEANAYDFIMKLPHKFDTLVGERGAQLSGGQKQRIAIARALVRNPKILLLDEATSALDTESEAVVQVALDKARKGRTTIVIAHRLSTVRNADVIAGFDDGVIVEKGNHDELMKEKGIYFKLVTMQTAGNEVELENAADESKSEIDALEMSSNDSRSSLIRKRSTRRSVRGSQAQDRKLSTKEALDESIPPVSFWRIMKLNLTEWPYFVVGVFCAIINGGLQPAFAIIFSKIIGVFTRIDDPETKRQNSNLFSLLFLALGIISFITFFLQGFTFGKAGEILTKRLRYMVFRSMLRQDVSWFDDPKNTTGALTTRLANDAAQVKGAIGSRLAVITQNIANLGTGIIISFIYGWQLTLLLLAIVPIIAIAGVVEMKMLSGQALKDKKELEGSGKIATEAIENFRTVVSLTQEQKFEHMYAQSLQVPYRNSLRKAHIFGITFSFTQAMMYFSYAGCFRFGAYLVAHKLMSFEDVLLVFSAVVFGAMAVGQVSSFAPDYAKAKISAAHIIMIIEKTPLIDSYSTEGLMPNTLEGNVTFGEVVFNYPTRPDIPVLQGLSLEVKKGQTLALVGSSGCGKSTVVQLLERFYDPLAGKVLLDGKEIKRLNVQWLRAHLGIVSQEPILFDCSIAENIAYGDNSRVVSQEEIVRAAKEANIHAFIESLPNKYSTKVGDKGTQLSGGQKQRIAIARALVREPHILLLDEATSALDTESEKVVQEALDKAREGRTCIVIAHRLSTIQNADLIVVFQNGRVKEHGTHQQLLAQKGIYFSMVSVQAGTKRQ
Sequence of ATP-dependent translocase ABCB1 (Homo sapiens, UniProt P08183, Q1193K) (P08183 whole entry Q1193K): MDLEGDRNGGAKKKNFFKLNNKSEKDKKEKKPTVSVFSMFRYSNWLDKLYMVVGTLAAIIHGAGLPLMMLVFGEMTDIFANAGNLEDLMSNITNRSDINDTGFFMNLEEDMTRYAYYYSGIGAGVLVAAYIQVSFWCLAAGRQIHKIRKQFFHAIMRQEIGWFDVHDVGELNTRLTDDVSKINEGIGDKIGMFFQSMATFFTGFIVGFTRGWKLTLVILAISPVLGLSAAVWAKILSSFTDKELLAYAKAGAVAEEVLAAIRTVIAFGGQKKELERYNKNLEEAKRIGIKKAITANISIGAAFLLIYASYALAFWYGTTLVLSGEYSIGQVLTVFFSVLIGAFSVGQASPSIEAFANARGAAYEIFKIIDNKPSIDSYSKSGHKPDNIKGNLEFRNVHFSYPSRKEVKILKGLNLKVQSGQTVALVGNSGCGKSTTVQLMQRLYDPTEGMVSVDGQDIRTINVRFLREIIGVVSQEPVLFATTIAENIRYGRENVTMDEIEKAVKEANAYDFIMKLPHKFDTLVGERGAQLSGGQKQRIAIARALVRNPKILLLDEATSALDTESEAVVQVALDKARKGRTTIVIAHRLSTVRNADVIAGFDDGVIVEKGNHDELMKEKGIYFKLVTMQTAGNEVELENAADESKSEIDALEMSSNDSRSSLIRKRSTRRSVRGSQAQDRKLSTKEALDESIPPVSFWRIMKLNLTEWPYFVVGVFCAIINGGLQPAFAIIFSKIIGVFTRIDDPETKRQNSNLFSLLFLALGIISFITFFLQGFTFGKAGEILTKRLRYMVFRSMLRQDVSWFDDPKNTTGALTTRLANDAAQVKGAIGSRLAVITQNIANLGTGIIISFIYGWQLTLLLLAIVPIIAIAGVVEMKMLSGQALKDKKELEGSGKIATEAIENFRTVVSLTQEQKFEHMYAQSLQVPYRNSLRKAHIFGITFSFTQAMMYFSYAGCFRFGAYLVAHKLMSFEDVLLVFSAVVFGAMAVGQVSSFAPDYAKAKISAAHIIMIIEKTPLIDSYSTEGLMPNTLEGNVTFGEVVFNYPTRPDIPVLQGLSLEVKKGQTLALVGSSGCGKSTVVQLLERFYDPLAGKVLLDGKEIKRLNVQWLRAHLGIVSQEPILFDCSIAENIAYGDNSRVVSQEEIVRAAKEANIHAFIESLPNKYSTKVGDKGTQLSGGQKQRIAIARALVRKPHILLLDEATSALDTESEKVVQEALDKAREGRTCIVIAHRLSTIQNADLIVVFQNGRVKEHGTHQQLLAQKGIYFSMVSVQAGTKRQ
Sequence of ATP-dependent translocase ABCB1 (Homo sapiens, UniProt P08183, Q1193T) (P08183 whole entry Q1193T): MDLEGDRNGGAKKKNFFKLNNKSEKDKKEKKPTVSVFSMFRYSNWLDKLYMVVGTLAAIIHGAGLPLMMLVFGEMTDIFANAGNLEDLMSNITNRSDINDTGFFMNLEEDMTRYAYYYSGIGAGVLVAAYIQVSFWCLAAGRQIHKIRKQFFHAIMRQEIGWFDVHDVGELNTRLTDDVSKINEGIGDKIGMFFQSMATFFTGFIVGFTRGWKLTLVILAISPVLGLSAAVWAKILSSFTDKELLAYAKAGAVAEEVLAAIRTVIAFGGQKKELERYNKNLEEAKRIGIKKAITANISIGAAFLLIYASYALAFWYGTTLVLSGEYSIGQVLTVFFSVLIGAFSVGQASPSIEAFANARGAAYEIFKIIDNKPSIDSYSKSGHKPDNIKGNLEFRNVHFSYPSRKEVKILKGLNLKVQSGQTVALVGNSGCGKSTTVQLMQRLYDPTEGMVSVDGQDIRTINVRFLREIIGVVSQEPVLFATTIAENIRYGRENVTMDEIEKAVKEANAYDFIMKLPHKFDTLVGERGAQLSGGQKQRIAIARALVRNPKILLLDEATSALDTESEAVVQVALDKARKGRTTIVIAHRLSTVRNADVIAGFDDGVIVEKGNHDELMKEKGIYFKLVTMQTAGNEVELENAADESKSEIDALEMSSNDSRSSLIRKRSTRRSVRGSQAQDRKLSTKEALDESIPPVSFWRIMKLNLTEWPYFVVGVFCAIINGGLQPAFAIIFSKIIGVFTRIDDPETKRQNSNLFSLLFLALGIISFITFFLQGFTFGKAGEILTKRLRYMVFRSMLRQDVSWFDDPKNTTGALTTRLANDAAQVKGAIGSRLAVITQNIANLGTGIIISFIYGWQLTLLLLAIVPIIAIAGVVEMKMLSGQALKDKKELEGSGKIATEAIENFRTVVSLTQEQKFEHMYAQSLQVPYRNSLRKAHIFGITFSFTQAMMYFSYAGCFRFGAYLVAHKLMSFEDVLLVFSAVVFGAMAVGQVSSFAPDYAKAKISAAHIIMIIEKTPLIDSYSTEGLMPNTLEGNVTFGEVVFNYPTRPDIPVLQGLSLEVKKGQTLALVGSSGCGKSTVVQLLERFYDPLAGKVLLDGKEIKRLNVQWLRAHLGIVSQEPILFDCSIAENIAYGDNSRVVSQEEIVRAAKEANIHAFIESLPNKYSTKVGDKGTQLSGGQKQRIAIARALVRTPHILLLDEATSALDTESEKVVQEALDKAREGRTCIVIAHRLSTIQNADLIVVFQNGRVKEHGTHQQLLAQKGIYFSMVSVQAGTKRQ

Compound: O=c1cc(-c2ccc(OCCOCCNCc3ccccc3)cc2)oc2ccccc12
- fold change (FC) [1]: 8.5
- Activity [2]: 71.4%
- fold change (FC) [3]: 9.4
- Activity [4]: 104%
- Activity [5]: 95%

Source: ChEMBL document CHEMBL5338754, “Identification of Binding Sites in the Nucleotide-Binding Domain of P-Glycoprotein for a Potent and Nontoxic Modulator, the Amine-Containing Monomeric Flavonoid FM04” (J Med Chem, 2023)
